Assay [1] has as its target T1, HiBit-BRG1 fusion protein (Homo sapiens, UniProt P51532).
T1 construct: expressed in transfected cells
In words: HiBiT-BRG1 cell-based degradation assay (Nano-Glo HiBiT Lytic Detection, 24 h). The following applies: stable HeLa cell line expressing HiBit-BRG1 and LgBit, top dose 30 μM, read-out: BRG1 HiBit Degradation Maximum (%). An outline of the steps:
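HeLa cells stably expressing HiBiT-BRG1 plus LgBiT were treated with 10-point 3-fold compound dilutions (top 30 μM final) for 24 h. Lytic Nano-Glo HiBiT luminescence was read. % degradation was normalised between DMSO (high control) and 2 μM of a reference BRM/BRG1 degrader (low control).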

The target of another assay is T2, HiBit-BRM fusion protein (Homo sapiens, UniProt P51531).
T2 construct: expressed in transfected cells
The assay can be described thus: HiBiT-BRM cell-based degradation assay (Nano-Glo HiBiT Lytic Detection, 24 h). The conditions noted are these: stable HeLa cell line expressing HiBiT-BRM, top dose 30 μM. In outline:
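HeLa stably expressing HiBiT-BRM; 24 h compound exposure, 10-pt 3-fold dilution from 30 μM final, duplicates. Lytic LgBiT complementation, luminescence. % degradation vs DMSO (HC) and 2 μM known BRM/BRG1 degrader (LC).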

T2 sequence (P51531 whole entry, the tested form may be a part): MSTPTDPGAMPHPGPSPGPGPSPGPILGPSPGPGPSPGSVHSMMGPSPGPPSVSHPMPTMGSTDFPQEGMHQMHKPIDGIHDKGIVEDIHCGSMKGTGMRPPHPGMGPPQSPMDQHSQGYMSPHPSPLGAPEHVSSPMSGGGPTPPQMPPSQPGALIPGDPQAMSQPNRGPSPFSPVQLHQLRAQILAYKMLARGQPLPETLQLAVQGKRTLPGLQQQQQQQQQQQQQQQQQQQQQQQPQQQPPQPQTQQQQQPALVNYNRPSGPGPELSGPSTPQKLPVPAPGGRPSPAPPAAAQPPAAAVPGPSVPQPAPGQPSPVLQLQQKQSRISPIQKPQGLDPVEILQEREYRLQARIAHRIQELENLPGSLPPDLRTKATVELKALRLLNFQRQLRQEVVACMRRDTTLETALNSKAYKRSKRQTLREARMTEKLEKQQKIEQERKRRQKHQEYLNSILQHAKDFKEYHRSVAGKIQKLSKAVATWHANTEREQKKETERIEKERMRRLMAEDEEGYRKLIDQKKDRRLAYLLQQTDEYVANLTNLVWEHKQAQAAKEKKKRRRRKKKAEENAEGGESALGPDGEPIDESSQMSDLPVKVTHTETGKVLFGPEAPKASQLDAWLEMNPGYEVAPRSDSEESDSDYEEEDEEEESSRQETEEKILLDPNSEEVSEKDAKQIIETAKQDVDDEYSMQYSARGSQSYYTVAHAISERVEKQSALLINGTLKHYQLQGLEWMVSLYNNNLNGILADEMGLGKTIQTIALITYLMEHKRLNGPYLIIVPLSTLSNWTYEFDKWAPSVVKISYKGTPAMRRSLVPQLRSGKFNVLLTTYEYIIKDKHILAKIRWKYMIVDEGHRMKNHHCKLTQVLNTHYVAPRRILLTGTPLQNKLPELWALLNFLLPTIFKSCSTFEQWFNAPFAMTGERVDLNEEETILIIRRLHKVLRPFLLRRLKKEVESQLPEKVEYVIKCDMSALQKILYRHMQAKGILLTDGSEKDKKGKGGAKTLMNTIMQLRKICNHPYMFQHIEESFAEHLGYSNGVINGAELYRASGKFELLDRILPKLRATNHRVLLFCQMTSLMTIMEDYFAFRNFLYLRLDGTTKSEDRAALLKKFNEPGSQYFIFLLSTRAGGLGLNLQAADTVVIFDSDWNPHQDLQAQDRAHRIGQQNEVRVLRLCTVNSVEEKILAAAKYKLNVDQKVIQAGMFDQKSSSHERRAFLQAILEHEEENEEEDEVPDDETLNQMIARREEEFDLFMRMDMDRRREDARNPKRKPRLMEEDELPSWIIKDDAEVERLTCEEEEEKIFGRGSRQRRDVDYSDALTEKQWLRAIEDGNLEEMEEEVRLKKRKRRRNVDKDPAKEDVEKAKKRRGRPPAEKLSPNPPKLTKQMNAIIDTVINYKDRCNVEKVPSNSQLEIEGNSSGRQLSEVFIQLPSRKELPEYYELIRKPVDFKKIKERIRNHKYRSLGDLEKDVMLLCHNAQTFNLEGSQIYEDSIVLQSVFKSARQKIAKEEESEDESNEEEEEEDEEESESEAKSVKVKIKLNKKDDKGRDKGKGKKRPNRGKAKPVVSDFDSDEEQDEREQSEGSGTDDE
T1 sequence (P51532 whole entry, the tested form may be a part): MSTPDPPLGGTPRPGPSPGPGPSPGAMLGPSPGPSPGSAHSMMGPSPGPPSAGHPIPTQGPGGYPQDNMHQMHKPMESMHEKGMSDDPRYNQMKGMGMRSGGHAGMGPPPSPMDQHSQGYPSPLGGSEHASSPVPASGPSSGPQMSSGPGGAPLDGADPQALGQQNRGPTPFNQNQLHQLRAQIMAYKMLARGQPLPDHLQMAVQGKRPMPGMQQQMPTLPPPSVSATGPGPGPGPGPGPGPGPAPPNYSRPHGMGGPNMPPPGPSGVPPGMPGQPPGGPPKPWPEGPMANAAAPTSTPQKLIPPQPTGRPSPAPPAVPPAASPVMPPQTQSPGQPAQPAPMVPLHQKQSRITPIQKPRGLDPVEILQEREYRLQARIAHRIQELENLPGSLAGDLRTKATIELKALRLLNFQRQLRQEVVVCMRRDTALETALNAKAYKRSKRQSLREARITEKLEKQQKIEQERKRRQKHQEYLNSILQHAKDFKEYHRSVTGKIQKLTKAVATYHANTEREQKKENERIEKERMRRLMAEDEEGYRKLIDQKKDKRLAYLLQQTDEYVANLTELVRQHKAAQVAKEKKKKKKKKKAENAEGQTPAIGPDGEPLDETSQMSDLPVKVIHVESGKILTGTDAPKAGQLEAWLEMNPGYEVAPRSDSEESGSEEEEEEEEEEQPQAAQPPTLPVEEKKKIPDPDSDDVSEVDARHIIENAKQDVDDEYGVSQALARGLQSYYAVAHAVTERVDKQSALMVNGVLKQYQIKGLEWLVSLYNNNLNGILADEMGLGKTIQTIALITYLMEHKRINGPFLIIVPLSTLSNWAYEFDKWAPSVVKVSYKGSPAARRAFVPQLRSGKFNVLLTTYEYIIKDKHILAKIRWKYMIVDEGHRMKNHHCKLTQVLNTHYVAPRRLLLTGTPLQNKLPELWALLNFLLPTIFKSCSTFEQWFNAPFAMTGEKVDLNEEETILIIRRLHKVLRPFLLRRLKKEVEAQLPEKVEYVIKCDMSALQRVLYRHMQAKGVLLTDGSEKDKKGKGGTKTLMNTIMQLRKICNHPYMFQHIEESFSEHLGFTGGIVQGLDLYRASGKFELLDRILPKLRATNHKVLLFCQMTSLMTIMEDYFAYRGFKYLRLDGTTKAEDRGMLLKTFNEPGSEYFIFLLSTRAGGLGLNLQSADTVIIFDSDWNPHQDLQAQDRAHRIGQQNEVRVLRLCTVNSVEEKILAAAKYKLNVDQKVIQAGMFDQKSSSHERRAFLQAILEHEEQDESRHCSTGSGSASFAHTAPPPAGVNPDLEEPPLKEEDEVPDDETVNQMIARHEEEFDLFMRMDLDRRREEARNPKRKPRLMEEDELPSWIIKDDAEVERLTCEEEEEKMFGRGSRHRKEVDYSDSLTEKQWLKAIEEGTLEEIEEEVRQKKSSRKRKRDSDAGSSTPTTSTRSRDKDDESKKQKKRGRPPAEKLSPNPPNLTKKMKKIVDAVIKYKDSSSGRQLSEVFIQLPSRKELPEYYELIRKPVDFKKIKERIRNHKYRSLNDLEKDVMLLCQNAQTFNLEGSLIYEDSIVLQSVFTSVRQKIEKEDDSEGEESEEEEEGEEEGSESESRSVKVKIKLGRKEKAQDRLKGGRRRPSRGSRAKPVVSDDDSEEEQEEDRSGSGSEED

Take `Cc1nc2cccc(NCCOCCOCCNC(=O)C34CC(COc5cc(-c6ccccc6O)nnc5N)(C3)C4)c2c(=O)n1C1CCC(=O)NC1=O` (stereo not drawn) [Compound 61, 3-(((3-amino-6-(2-hydroxyphenyl)pyridazin-4-yl)oxy)methyl)-N-(2-(2-(2-((3-(2,6-dioxopiperidin-3-yl)-2-methyl-4-oxo-3,4-dihydroquinazolin-5-yl)amino)ethoxy)ethoxy)ethyl)bicyclo[1.1.1]pentane-1-carboxamide]: in assay [1], the Dmax was less than 50%. In addition, the “BRM HiBit Degradation Maximum (%)” value at HiBit-BRM fusion protein is on record as “C (“C” indicates maximum degradation < 50%)”.
Regarding `Nc1nnc(-c2ccccc2O)cc1OCC12CC(CNC(=O)CCN3CCN(c4ccc5c(c4)C(=O)N(C4CCC(=O)NC4=O)C5=O)CC3)(C1)C2` (stereo not drawn) [Compound 16, N-((3-(((3-amino-6-(2-hydroxyphenyl)pyridazin-4-yl)oxy)methyl)bicyclo[1.1.1]pentan-1-yl)methyl)-3-(4-(2-(2,6-dioxopiperidin-3-yl)-1,3-dioxoisoindolin-5-yl)piperazin-1-yl) propanamide], the Dmax in assay [1] was less than 50%. Moreover, the “BRM HiBit Degradation Maximum (%)” value at HiBit-BRM fusion protein is given as “C (“C” indicates maximum degradation < 50%)”.
Regarding `Nc1nnc(-c2ccccc2O)cc1OCC12CC(CNC(=O)CCCCOc3cccc4c3C(=O)N(C3CCC(=O)NC3=O)C4=O)(C1)C2` (stereo not drawn) [Compound 3, N-[[3-([[3-amino-6-(2-hydroxyphenyl)pyridazin-4-yl]oxy]methyl)bicyclo[1.1.1]pentan-1-yl]methyl]-5-[[2-(2,6-dioxopiperidin-3-yl)-1,3-dioxoisoindol-4-yl]oxy]pentanamide], the Dmax in assay [1] is less than 50%. Further, the “BRM HiBit Degradation Maximum (%)” value at HiBit-BRM fusion protein was “C (“C” indicates maximum degradation < 50%)”.
Consider `Nc1nnc(-c2ccccc2O)cc1OCCC12CC(NC(=O)C3CC3CNC(=O)COc3ccc4c(c3)C(=O)N(C3CCC(=O)NC3=O)C4=O)(C1)C2` (stereo not drawn) [Compound 29, N-(3-(2-((3-amino-6-(2-hydroxyphenyl)pyridazin-4-yl)oxy)ethyl)bicyclo[1.1.1]pentan-1-yl)-2-((2-((2-(2,6-dioxopiperidin-3-yl)-1,3-dioxoisoindolin-5-yl)oxy)acetamido)methyl)cyclopropane-1-carboxamide], for which the Dmax in assay [1] was less than 50%. In addition, the “BRM HiBit Degradation Maximum (%)” value at HiBit-BRM fusion protein is given as “C (“C” indicates maximum degradation < 50%)”.
As to `Cc1ncsc1-c1ccc(CNC(=O)[C@@H]2C[C@@H](O)CN2C(=O)[C@@H](NC(=O)CCC(=O)NC23CC(CCOc4cc(-c5ccccc5O)nnc4N)(C2)C3)C(C)(C)C)cc1` [Compound 42, N1-(3-(2-((3-amino-6-(2-hydroxyphenyl)pyridazin-4-yl)oxy)ethyl)bicyclo[1.1.1]pentan-1-yl)-N4-((S)-1-((2S,4R)-4-hydroxy-2-((4-(4-methylthiazol-5-yl)benzyl)carbamoyl)pyrrolidin-1-yl)-3,3-dimethyl-1-oxobutan-2-yl)succinamide], the Dmax in assay [1] is less than 50%. The “BRM HiBit Degradation Maximum (%)” value on HiBit-BRM fusion protein is reported as “C (“C” indicates maximum degradation < 50%)”.
On the same counts, the results for `Cc1ncsc1-c1ccc(CNC(=O)[C@@H]2C[C@@H](O)CN2C(=O)[C@@H](NC(=O)CCCC(=O)NCC23CC(COc4cc(-c5ccccc5O)nnc4N)(C2)C3)C(C)(C)C)cc1` [Compound 37, N1-((3-(((3-amino-6-(2-hydroxyphenyl)pyridazin-4-yl)oxy)methyl)bicyclo[1.1.1]pentan-1-yl)methyl)-N5-((S)-1-((2S,4R)-4-hydroxy-2-((4-(4-methylthiazol-5-yl)benzyl)carbamoyl)pyrrolidin-1-yl)-3,3-dimethyl-1-oxobutan-2-yl)glutaramide] are less than 50% and “C (“C” indicates maximum degradation < 50%)”.
As to `Cc1ncsc1-c1ccc(CNC(=O)[C@@H]2C[C@@H](O)CN2C(=O)[C@@H](NC(=O)CCCCC(=O)NCC23CC(COc4cc(-c5ccccc5O)nnc4N)(C2)C3)C(C)(C)C)cc1` [Compound 35, N1-((3-(((3-amino-6-(2-hydroxyphenyl)pyridazin-4-yl)oxy)methyl)bicyclo[1.1.1]pentan-1-yl)methyl)-N6-((S)-1-((2S,4R)-4-hydroxy-2-((4-(4-methylthiazol-5-yl)benzyl)carbamoyl)pyrrolidin-1-yl)-3,3-dimethyl-1-oxobutan-2-yl)adipamide], in assay [1], the Dmax is less than 50%. The “BRM HiBit Degradation Maximum (%)” value at HiBit-BRM fusion protein was “C (“C” indicates maximum degradation < 50%)”.
In the same order, the values of `Cc1ncsc1-c1ccc(CNC(=O)[C@@H]2C[C@@H](O)CN2C(=O)[C@@H](NC(=O)COCCOCCOCCOCC(=O)NC23CC(CCOc4cc(-c5ccccc5O)nnc4N)(C2)C3)C(C)(C)C)cc1` [Compound 45, N1-(3-(2-((3-amino-6-(2-hydroxyphenyl)pyridazin-4-yl)oxy)ethyl)bicyclo[1.1.1]pentan-1-yl)-N14-((S)-1-((2S,4R)-4-hydroxy-2-((4-(4-methylthiazol-5-yl)benzyl)carbamoyl)pyrrolidin-1-yl)-3,3-dimethyl-1-oxobutan-2-yl)-3,6,9,12-tetraoxatetradecanediamide] are less than 50% and “B (“B” indicates maximum degradation ≥ 50%)”.
On the same counts, the results for `Nc1nnc(-c2ccccc2O)cc1OCC12CC(C(=O)NCCOCCOCCOCCNC(=O)COc3ccc4c(c3)C(=O)N(C3CCC(=O)NC3=O)C4=O)(C1)C2` (stereo not drawn) [Compound 93, 3-(((3-amino-6-(2-hydroxyphenyl)pyridazin-4-yl)oxy)methyl)-N-(1-((2-(2,6-dioxopiperidin-3-yl)-1,3-dioxoisoindolin-5-yl)oxy)-2-oxo-6,9,12-trioxa-3-azatetradecan-14-yl)bicyclo[1.1.1]pentane-1-carboxamide] are less than 50% and “C (“C” indicates maximum degradation < 50%)”.
In the same order, the values of `Nc1nnc(-c2ccccc2O)cc1OCC12CC(C(=O)NCCOc3ccc4c(c3)C(=O)N(C3CCC(=O)NC3=O)C4=O)(C1)C2` (stereo not drawn) [Compound 55, 3-(((3-amino-6-(2-hydroxyphenyl)pyridazin-4-yl)oxy)methyl)-N-(2-((2-(2,6-dioxopiperidin-3-yl)-1,3-dioxoisoindolin-5-yl)oxy)ethyl)bicyclo[1.1.1]pentane-1-carboxamide] are less than 50% and “C (“C” indicates maximum degradation < 50%)”.
On to `Nc1nnc(-c2ccccc2O)cc1OCCC12CC(NC(=O)C3CCN(CCOc4ccc5c(c4)C(=O)N(C4CCC(=O)NC4=O)C5=O)CC3)(C1)C2` (stereo not drawn) [Compound 32, N-(3-(2-((3-amino-6-(2-hydroxyphenyl)pyridazin-4-yl)oxy)ethyl)bicyclo[1.1.1]pentan-1-yl)-1-(2-((2-(2,6-dioxopiperidin-3-yl)-1,3-dioxoisoindolin-5-yl)oxy)ethyl)piperidine-4-carboxamide], for which the Dmax in assay [1] was less than 50%. The “BRM HiBit Degradation Maximum (%)” value at HiBit-BRM fusion protein is listed as “B (“B” indicates maximum degradation ≥ 50%)”.
In the same order, the values of `Nc1nnc(-c2ccccc2O)cc1OCC12CC(C(=O)NCCOCCOCCOCCNC(=O)COc3cccc4c3C(=O)N(C3CCC(=O)NC3=O)C4=O)(C1)C2` (stereo not drawn) [Compound 92, 3-(((3-amino-6-(2-hydroxyphenyl)pyridazin-4-yl)oxy)methyl)-N-(1-((2-(2,6-dioxopiperidin-3-yl)-1,3-dioxoisoindolin-4-yl)oxy)-2-oxo-6,9,12-trioxa-3-azatetradecan-14-yl)bicyclo[1.1.1]pentane-1-carboxamide] are less than 50% and “C (“C” indicates maximum degradation < 50%)”.
